Literature values, collected in patent US20190298669A1 (priority 2018, published 2019).

Key:
viral RNP complexes = conditions: Pleschka et al., 2001; cited from earlier work
[1] = human, in vivo; cited from earlier work

N#CC(=C(/N)Sc1ccccc1N)/C(C#N)=C(\N)Sc1ccccc1N [U0126]
nuclear cytoplasmic transport of viral RNP complexes (viral RNP complexes): leads to a blockade

CCOC(=O)C1=C[C@@H](OC(CC)CC)[C@H](NC(C)=O)[C@@H](N)C1 [oseltamivir]
patients experiencing nausea and vomiting [1]: 10-15%
